The assay deals with T1, dopamine D2 receptor (Rattus norvegicus, UniProt P61169).
T1 construct: Striata from rats (Sprague Dawley, Charles River) were homogenized immediately after removal; from tissue; host or cells: rat striatum (Sprague Dawley, Charles River), membranes
Briefly: Receptor binding assay: affinity for the dopamine D2 receptor (3H-ADTN displacement, rat striatal membranes). More on the design: species or system rat (Sprague Dawley). Here is the method: The effects of the novel compounds can be shown in the receptor binding assay as follows:
Striata from rats (Sprague Dawley, Charles River) were homogenized immediately after removal in 0.32M sucrose solution (0° C.). The homogenate was filtered through gauze, the filtrate was centrifuged at 1000 xg (5 min at 4° C.) and the resulting supernatant was centrifuged at 40000 xg (4° C., 10 min). The residue (membranes) was taken up in incubation buffer (50 mM tris-HCl, 1 mM MgCl2 and 0.1% ascorbic acid, pH 7.4) and incubated at 37° C. for 20 min. The residue was subsequently washed 2× with incubation buffer by resuspension and recentrifugation. The membranes were frozen in portions in liquid nitrogen.
The assay mixtures (1 ml) were composed of membranes (380 μg of protein), 1 nM ^3 H-ADTN (NEN, Dreieich Germany, specific radioactivity 1.4 TBq/mmol) and 0.1 μM SCH 23390 (total binding) or a) with the addition of 50 nM spiperone (non-specific binding) or b) with test substance. The mixtures were prepared in triplicate.
After the incubation (40 min at 25° C.) the mixtures were filtered through glass fiber filters (Whatman GF/B) and briefly washed with ice-cold washing buffer (Tris-HCl, pH 7.4). The radioactivity retained on the filters was determined by liquid scintillation counting. The non-specific binding comprised about 40-50% of the total binding.
The evaluation of the competition plots and the determination of the dissociation constant took place by iterative non-linear regression analysis based on the "ligand" program (Muson and Rodbard: Anal. Biochem. 107 (1980) 220).
Affinity of the test substances for the dopamine D2 receptor

Where [1] appears, read: rat striatal membranes, 1 nM 3H-ADTN, 0.1 μM SCH 23390, 40 min at 25° C., pH 7.4, non-specific binding with 50 nM spiperone, read-out: Ki (affinity of the test substances for the dopamine D2 receptor).

The record followed here is patent publication US5401743A, “Aminoalkyl-substituted 2-amino-5-mercaptothiadiazoles the preparation and use thereof” (BASF Aktiengesellschaft, priority 1991, dated 1995).

Molecules are shown by their SMILES. pKi: −log10 of the molar value. Counter-ions that a name gives are not always drawn. Like-named read-outs stand apart in the source and are kept apart here.

T1 sequence (P61169 whole entry): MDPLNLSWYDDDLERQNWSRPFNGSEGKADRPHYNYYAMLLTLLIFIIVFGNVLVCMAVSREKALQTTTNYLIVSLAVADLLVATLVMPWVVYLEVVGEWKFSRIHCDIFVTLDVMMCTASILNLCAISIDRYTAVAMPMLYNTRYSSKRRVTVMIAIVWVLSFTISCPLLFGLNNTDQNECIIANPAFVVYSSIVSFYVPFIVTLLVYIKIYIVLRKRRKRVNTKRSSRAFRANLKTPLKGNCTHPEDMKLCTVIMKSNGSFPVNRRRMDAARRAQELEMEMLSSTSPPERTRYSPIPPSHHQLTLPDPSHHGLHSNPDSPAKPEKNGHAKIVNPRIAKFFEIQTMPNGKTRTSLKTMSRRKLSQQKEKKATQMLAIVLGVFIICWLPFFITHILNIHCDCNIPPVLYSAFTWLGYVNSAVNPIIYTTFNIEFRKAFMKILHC

As usually defined, the pKi is the Ki on a negative log10 scale, so that one unit is a factor of ten. In the case of `Nc1nnc(SCCN2CCC(c3ccccc3)CC2)s1` [Example 8, 2-Amino-5-[2-(4-phenylpiperidinyl)ethylthio]-1,3,4-thiadiazole hydrochloride], the pKi under setting [1] was 7.35. The same measure, in the same setting: the figure for `Nc1nnc(SCCCN2CCN(c3ccc(F)cc3)CC2)s1` [Example 1, 2-Amino-5-[3-(4-fluorophenylpiperazinyl)propylthio]-1,3,4-thiadiazole dihydrochloride] is 6.90; for `Cc1cccc(N2CCN(CCCSc3nnc(N)s3)CC2)c1` [Example 14, 2-Amino-5-[3-(4-(3-methylphenyl)piperazinyl)propylthio]-1,3,4-thiadiazole hydrochloride] it is 7.44; for `CCOc1ccccc1N1CCN(CCSc2nnc(N)s2)CC1` [Example 11, 2-Amino-5-[2-(4-(2-ethoxyphenyl)piperazinyl)ethylthio]-1,3,4-thiadiazole hydrochloride] it is 7.82.

`Nc1nnc(SCCN2CC=C(c3ccccc3)CC2)s1` [Example 3, 2-Amino-5-[2-(4-phenyl-1,2,3,6-tetrahydropyridyl)-ethylthio]-1,3,4-thiadiazole dihydrochloride] had a pKi of 7.92.

Turning to `Nc1nnc(SCCCN2CC=C(c3ccccc3)CC2)s1` [Example 4, 2-Amino-5-[3-(4-phenyl-1,2,3,6-tetrahydropyridyl)-propylthio]-1,3,4-thiadiazole hydrochloride], the pKi was 8.22. With `CCCN(CCCSc1nnc(N)s1)CCc1ccccc1` [Example 9, 2-Amino-5-[3-(2-phenylethyl-n-propylamino)propylthio]-1,3,4-thiadiazole tartrate], the negative logarithm of the Ki (pKi) under setting [1] was 7.35.
